The values below come from article PMC10746543, “Design principles for cyclin K molecular glue degraders” (Nature Chemical Biology, 2023).

For orientation: EC50 means the midpoint of the concentration-response curve. As a reminder, the DC50 is the concentration at which degradation of the target reaches its halfway point.

Where “and” joins values, the source holds several entries; their conditions need not be identical. Equal entries are not always repeated. Where two headings read alike, the source gives them in different places.

Assay [1] has as its target T1, CDK12–cyclin K and DDB1 (Homo sapiens, UniProt Q16531+Q9NYV4, K965R).
T1 construct: His6–CDK12 (a.a. 713–1,052); full-length or beta-propeller B domain deletion (ΔBPB: a.a. 396–705 deleted) constructs of His6–DDB1ΔBPB, StrepII–Avi–DDB1, or His6–Spy–DDB1; made in house; host or cells: Trichoplusia ni High Five insect cells (baculovirus)
Put plainly: TR-FRET ternary complex formation assay (compound titration). The class given is binding. An excerpt:
A 70 μs delay was employed to reduce background fluorescence. The TR-FRET signal was obtained through calculating the ratio of 520 nm to 490 nm fluorescence, and Prism 9 (GraphPad) was used for further data analysis.
In general terms: TR-FRET usually uses a lanthanide donor and a delayed reading to cut background.

For assay [2], the system named is cyclin K–eGFP degradation reporter. The assay is described as follows: Cyclin K reporter stability analysis (dual-color cyclin K–eGFP reporter). The class given is cell-based, human. The note with it: Supplementary Table 2; HEK293T cycK-eGFP reporter, 5 h; read-out: Cellular assays DC50. As for the experimental part: HEK293T–Cas9 cells expressing the cyclin K–eGFP degradation reporter were resuspended at 1 × 10^6 ml^−1 and 50 µl of cell suspension was seeded in non-cell-culture-treated 384-well plates. Shortly after, cells were treated with drug or DMSO for 5 h. […] The fluorescent signal was quantified by flow cytometry (LSRFortessa flow cytometer, BD Biosciences). Using FlowJo (flow cytometry analysis software, BD Biosciences), the geometric mean of the eGFP and mCherry fluorescent signal for round and mCherry-positive cells was calculated. The ratio of eGFP to mCherry was normalized to the average of three DMSO-treated controls.

Assay [3] deals with HEK293T cells. Put plainly: Drug sensitivity assay (CellTiter-Glo viability) with or without MLN4924 pretreatment. Format: cell-based, human. The following applies: for EC50: Homo sapiens, HEK-293T; for Toxicity rescue: MLN4924-mediated cytotoxicity rescue, 10 µM used where n.d. As for the experimental part:
HEK293T–Cas9 cells were resuspended at 0.15 × 10^6 ml^−1 treated with DMSO or 100 nM MLN4924 and plated on 384-well plates. After 2 h, the indicated drugs were dispensed with a D300 digital dispenser (Tecan). After 3 days of drug exposure, cell viability was assessed using the CellTiter-Glo luminescent assay (Promega, G7572) on an CLARIOstar Plus, MARS 3.4 (BMG LabTech). Cell viabilities were calculated relative to DMSO controls.
A general note: In ATP-based viability assays light output follows the ATP content of the culture.

Setting [4] is: compound concentration 79.2001 nM.
[5] abbreviates: compound concentration 158.4 nM.
Where [6] appears, read: compound concentration 309.6 nM.
Setting [7] is: compound concentration 626.401 nM.
Setting [8] is: compound concentration 1252.8 nM.
Setting [9] is: compound concentration 9936.01 nM.
Where [10] appears, read: compound concentration 20016 nM.
The mark [11] stands for this setting: Supplementary Table 2, HEK293T viability, 72 h, compound alone, read-out: Cellular assays EC50.

T1 sequence (Q9NYV4 713-1052 K965R): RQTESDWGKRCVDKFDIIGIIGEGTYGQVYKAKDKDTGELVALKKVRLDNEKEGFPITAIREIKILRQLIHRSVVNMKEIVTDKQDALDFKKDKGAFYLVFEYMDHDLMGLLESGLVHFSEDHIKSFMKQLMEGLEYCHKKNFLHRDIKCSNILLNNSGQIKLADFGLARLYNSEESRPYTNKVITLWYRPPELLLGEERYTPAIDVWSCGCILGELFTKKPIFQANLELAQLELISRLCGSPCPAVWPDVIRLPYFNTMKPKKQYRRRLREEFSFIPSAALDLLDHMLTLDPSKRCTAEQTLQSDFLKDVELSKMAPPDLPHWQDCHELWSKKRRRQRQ
T1 sequence (O75909 1-267 partner): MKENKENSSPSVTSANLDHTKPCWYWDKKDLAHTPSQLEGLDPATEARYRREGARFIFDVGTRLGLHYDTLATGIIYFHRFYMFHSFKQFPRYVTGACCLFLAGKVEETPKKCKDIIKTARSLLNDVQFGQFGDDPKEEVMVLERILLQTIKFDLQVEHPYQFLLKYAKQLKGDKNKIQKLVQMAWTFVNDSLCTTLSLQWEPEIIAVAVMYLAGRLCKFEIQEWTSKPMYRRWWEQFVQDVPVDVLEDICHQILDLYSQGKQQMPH
T1 sequence (Q16531 whole entry): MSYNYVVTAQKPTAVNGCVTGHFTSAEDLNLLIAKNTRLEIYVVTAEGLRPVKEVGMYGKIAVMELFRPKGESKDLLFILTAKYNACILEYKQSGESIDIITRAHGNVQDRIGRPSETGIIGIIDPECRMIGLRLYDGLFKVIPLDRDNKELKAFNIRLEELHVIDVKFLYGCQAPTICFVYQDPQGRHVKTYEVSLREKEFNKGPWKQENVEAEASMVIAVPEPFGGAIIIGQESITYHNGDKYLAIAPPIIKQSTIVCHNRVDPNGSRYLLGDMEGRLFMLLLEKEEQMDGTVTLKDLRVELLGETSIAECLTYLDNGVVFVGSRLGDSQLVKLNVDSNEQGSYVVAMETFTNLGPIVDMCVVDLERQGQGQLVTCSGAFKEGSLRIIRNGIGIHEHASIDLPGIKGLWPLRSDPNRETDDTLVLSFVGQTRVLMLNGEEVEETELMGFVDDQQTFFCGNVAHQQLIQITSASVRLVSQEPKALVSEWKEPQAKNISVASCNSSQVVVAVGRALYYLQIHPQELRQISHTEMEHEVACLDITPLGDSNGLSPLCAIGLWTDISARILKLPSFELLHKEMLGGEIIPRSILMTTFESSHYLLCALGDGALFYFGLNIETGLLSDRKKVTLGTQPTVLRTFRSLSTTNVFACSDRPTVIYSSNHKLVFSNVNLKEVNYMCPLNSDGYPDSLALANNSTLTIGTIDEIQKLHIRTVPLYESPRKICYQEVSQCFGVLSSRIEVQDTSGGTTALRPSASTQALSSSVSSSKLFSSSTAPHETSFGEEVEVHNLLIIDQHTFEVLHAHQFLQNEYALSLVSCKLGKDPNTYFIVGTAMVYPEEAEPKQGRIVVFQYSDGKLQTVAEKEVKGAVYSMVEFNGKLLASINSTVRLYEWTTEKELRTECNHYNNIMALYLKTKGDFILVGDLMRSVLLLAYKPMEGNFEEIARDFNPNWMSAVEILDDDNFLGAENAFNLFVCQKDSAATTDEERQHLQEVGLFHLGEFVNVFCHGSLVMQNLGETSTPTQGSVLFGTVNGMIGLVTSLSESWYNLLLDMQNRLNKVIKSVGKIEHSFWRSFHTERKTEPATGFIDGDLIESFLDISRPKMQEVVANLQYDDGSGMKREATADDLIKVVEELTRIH

As to `Cn1cc(-n2cnc3c(NCc4nc5cc(O)ccc5[nH]4)nc(N4CCOCC4)nc32)cn1` [DS54], the EC50 in assay [1] (Supplementary Table 2, read-out: TR-FRET EC50 TR-FRET) is 252 nM; in assay [3] (Supplementary Fig. 5, HEK293T, CellTiter Glo, 72h, pre-treatment with 100 nM MLN4924, read-out: Viability EC50, with MLN4924), 3290 nM; in assay [3] (Supplementary Fig. 5, HEK293T, CellTiter Glo, 72h, read-out: Viability EC50, no MLN4924), 73 nM; in assay [3] (setting [11]), above 10000 nM. In addition, the TR-FRET signal in assay [1] (compound concentration 4.68 nM) was 0.1326 and 0.1303; in assay [1] (compound concentration 21.6 nM) it was 0.1333 and 0.1406; in assay [1] (compound concentration 36 nM) it was 0.1624 and 0.1682; in assay [1] (setting [4]), 0.2054 and 0.2174; in assay [1] (setting [5]), 0.3007; in assay [1] (setting [6]), 0.4286 and 0.4588. The TR-FRET signal in assay [1] (setting [7]) is 0.5953 and 0.5848; in assay [1] (setting [8]) it was 0.6865 and 0.6689; in assay [1] (compound concentration 2448 nM), 0.7142 and 0.68; in assay [1] (setting [9]) it was 0.6777 and 0.6603; in assay [1] (setting [10]), 0.6177 and 0.617. For the same compound, the “TR-FRET signal at compound concentration 4.68 nM” value in assay [1] (compound concentration 4.68 nM, raw replicate titration data) is 0.1326 and 0.1303. In addition, in assay [1] (compound concentration 21.6 nM, raw replicate titration data), the “TR-FRET signal at compound concentration 21.6 nM” value is 0.1333 and 0.1406. The “TR-FRET signal at compound concentration 36 nM” value in assay [1] (compound concentration 36 nM, raw replicate titration data) is 0.1624 and 0.1682. For the same compound, in assay [1] (compound concentration 79.2001 nM, raw replicate titration data), the “TR-FRET signal at compound concentration 79.2001 nM” value is 0.2054 and 0.2174. Further, the “TR-FRET signal at compound concentration 158.4 nM” value in assay [1] (compound concentration 158.4 nM, raw replicate titration data) is given as 0.3007. In assay [1] (compound concentration 309.6 nM, raw replicate titration data), the “TR-FRET signal at compound concentration 309.6 nM” value is 0.4286 and 0.4588. Besides, the “TR-FRET signal at compound concentration 626.401 nM” value in assay [1] (compound concentration 626.401 nM, raw replicate titration data) is 0.5953 and 0.5848. The “TR-FRET signal at compound concentration 1252.8 nM” value in assay [1] (compound concentration 1252.8 nM, raw replicate titration data) is 0.6865 and 0.6689. Further, the “TR-FRET signal at compound concentration 2448 nM” value in assay [1] (compound concentration 2448 nM, raw replicate titration data) was 0.7142 and 0.68. For the same compound, in assay [1] (compound concentration 9936.01 nM, raw replicate titration data), the “TR-FRET signal at compound concentration 9936.01 nM” value was 0.6777 and 0.6603. The “TR-FRET signal at compound concentration 20016 nM” value in assay [1] (compound concentration 20016 nM, raw replicate titration data) was 0.6177 and 0.617. Moreover, the DC50 in assay [2] is above 10000 nM. Further, the Toxicity rescue in assay [3] (Supplementary Table 2) came out at 0%.
Turning to `CC[C@H](CO)Nc1nc(NCCOCc2ccccc2)c2ncn(C(C)C)c2n1` [DS40], the TR-FRET signal in assay [1] (compound concentration 4.68 nM) is 0.2076 and 0.2321; in assay [1] (compound concentration 21.6 nM), 0.2226 and 0.2483; in assay [1] (compound concentration 36 nM), 0.2561 and 0.2746; in assay [1] (setting [4]), 0.3133 and 0.3047; in assay [1] (setting [5]) it was 0.4014 and 0.4131; in assay [1] (setting [6]) it was 0.5676 and 0.5799. In addition, the TR-FRET signal is 0.7977 and 0.8028 in assay [1] (setting [7]); 1.088 and 1.118 in assay [1] (setting [8]); 1.44 and 1.508 in assay [1] (compound concentration 2448 nM); 1.852 and 2.056 in assay [1] (setting [9]); 1.876 and 2.063 in assay [1] (setting [10]). For the same compound, the EC50 in assay [1] (sheet MOESM7, read-out: log TR-FRET EC50 (converted)) is 1300 nM; in assay [3] (setting [11]), above 10000 nM. The DC50 in assay [2] is above 10000 nM. Also, in assay [3] (Supplementary Table 2), the Toxicity rescue is 0%.
